{
  "source": "patent US8008283B2",
  "about": "“Methods and compositions for the treatment of neuropsychiatric disorders” (Neurotherapeutics Pharma, Inc., priority 2005, dated 2011)",
  "key": {"[1]": {"tested_on": "human skin", "conditions": "Willis et al.; cited from earlier work"}, "[2]": {"tested_on": "rats", "assay": "contextual fear conditioning in rats (freezing)", "assay_type": "in vivo, rat", "conditions": "I.V. in DMSO, furosemide 100 mg/kg, bumetanide 50 mg/kg; compared with vehicle alone; FIG. 5", "procedure": "Contextual fear conditioning involves pairing an aversive event, in this case moderate foot shock, with a distinctive environment. The strength of the fear memory is assessed using freezing, a species-typical defensive reaction in rats, marked by complete immobility, except for breathing. […] However, if they are allowed to explore the distinctive environment sometime before the immediate shock, they show intense anxiety and fear when placed back into the same environment. We can take advantage of this fact and, by procedurally dividing contextual fear conditioning into two phases, we can separately study effects of treatments on memory for the context (specifically a hippocampus based process) from learning the association between context and shock or experiencing the aversiveness of the shock (which depend upon emotional response circuitry including amygdala). […] The experiment employed 24 rats. […] Each rat was again placed into the same environment for 8 min during which time freezing was measured, as an index of Pavlovian conditioned fear. […] Measurement of freezing was accomplished through an overhead video camera connected to the microcomputer and was automatically scored using a specialty piece of software, FreezeFrame (OER Inc., Reston, Va.). Total freezing time was analyzed in a one-way analysis of variance (ANOVA) test, with drug dose as the […] factor."}, "[3]": {"tested_on": "rats", "conditions": "Granados-Soto et al. Pain 2005; cited from earlier work"}, "[4]": {"tested_on": "rats", "assay": "fear potentiated startle (FPS) test in rats", "assay_type": "in vivo, rat", "procedure": "Twenty-four rats received a 30 min period of habituation to the FPS apparatus. Twenty-four hours later, baseline startle amplitudes were collected. The rats were then divided into three matched groups based on baseline startle amplitudes. […] Groups 1 and 2 therefore consisted of 8 rats each, with Group 3 consisting of […]. Following baseline startle amplitude collection, 20 light/shock pairings were delivered on two sessions over two consecutive days (i.e., 10 light/shock pairings per day). […] Immediately following injections, startle amplitudes were assessed during startle alone trials and startle plus fear (light followed by startle) trials. Fear potentiated startle (light+startle amplitudes minus startle alone amplitudes) was compared between the treatment groups.\nAnimals were trained and tested in four identical stabilimeter devices (Med-Associates). Briefly, each rat was placed in a small Plexiglas cylinder. The floor of each stabilimeter consisted of four 6-mm-diameter stainless steel bars spaced 18 mm apart through which shock can be delivered. Cylinder movements result in displacement of an accelerometer where the resultant voltage is proportional to the velocity of the cage displacement. Startle amplitude is defined as the maximum accelerometer voltage that occurs during the first 0.25 sec after the startle stimulus is delivered. […] Each stabilimeter was enclosed in a ventilated, light-, and sound-attenuating box. All sound level measurements were made with a Precision Sound Level Meter. The noise of a ventilating fan attached to a sidewall of each wooden box produced an overall background noise level of 64 dB. The startle stimulus was a 50 ms burst of white noise (5 ms rise-decay time) generated by a white noise generator. The visual conditioned stimulus employed was illumination of a light bulb adjacent to the white noise source. The unconditioned stimulus was a 0.6 mA foot shock with duration of 0.5 sec, generated by four constant-current shockers located outside the chamber. The presentation and sequencing of all stimuli were under the control of the microcomputer.\nFPS procedures consisted of 5 days of testing; during days 1 and 2 baseline startle responses were collected, days 3 and 4 light/shock pairings were delivered, day 5 testing for fear potentiated startle was conducted.\nMatching: On the first two days all rats were placed in the Plexiglas cylinders and 3 min later presented with 30 startle stimuli at a 30 sec interstimulus interval.\nTraining: On the following 2 days, rats were placed in the Plexiglas cylinders. […] The shock was delivered during the last 0.5 sec of the 3.7 sec CSs at an average intertrial interval of 4 min (range, 3-5 min).\nThese initial startle stimuli were used to again habituate the rats to the acoustic startle stimuli. Thirty seconds after the last of these stimuli, each animal received 60 startle stimuli with half of the stimuli presented alone (startle alone trials) and the other half presented 3.2 sec after the onset of the 3.7 sec CS (CS-startle trials). All startle stimuli are presented at a mean 30 sec interstimulus interval, randomly varying between 20 and 40 sec.\nMeasures: The treatment groups were compared on the difference in startle amplitude between CS-startle and startle-alone trials (fear potentiation).\nThe therapeutic efficacy of several bumetanide analogs in alleviating anxiety was examined using the fear potentiated startle (FPS) test in rats as described above."}},
  "data": [
    {"smiles": "CCCCNc1cc(C(=O)O)cc(S(N)(=O)=O)c1Oc1ccccc1", "note": "[bumetanide]", "values": [
      {"measurement": "sensory nerve activation, itch and flare responses induced by histamine", "setting": "[1]", "result": "inhibit sensory nerve activation to reduce the itch and flare responses"},
      {"measurement": "freezing", "setting": "[2]", "result": "significantly less freezing"},
      {"measurement": "formalin-induced nociception", "setting": "[3]", "result": "reduced"},
      {"measurement": "difference score one week after treatment", "setting": "[4]; compared with vehicle alone, FIG. 10", "result": "higher difference score"},
      {"measurement": "statistical difference from vehicle in difference score one week after treatment", "setting": "[4]; error bars large for vehicle-treated animals", "result": "does not imply any statistically significant difference"},
      {"measurement": "difference score (startle alone - fear potentiated startle) on the test day", "setting": "[4]; i.v. in DMSO, furosemide 100 mg/kg, bumetanide 70 mg/kg, compared with vehicle alone, FIG. 8", "result": "statistically significantly lower difference score"}
    ]},
    {"smiles": "CCCc1c2oc(C(=O)O)cc(=O)c2cc2c(=O)cc(C(=O)O)n(CC)c12", "note": "[nedocromil sodium]", "values": [
      {"measurement": "sensory nerve activation, itch and flare responses induced by histamine", "setting": "[1]", "result": "inhibit sensory nerve activation to reduce the itch and flare responses"}
    ]},
    {"smiles": "NS(=O)(=O)c1cc(C(=O)O)cc(N2CCCC2)c1Oc1ccccc1", "note": "[piretanide]", "values": [
      {"measurement": "formalin-induced nociception", "setting": "[3]", "result": "reduced"}
    ]}
  ]
}
